Source: publication PMC2694132 (Cancer research, 2009)
Residue numbers refer to the chain shown, from its start. Entries after “also recorded” stand apart in the source; their conditions may differ.

Assays:
Format in all cases: in vitro ADME
UGT2B17 = target: T1, UGT2B17 (Homo sapiens, UniProt O75795); assay: SAHA glucuronidation, UGT2B17-overexpressing HEK293 cell homogenate
T1 sequence (O75795 24-530): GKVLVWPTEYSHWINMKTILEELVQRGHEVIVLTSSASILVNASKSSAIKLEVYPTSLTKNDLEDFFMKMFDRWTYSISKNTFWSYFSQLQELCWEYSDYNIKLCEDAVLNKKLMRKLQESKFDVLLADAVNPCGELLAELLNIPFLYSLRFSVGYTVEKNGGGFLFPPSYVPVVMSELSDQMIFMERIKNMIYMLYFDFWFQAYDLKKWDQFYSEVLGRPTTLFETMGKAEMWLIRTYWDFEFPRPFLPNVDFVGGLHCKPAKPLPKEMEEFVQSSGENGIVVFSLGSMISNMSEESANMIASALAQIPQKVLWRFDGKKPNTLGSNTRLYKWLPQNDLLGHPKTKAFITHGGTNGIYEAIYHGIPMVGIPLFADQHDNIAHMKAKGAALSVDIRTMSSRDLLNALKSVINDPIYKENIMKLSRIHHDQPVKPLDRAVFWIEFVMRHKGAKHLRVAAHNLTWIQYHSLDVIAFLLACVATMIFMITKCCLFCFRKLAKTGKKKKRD

[1] = target: T2, UGT1A7*2 [UGT1A7p.(Asn129Lys)+(Arg131Lys)] (Homo sapiens, UniProt Q9HAW7, N129K/R131K); assay: SAHA glucuronidation, UGT1A7*2 variant cell homogenate
T2 sequence (Q9HAW7 26-530 N129K/R131K): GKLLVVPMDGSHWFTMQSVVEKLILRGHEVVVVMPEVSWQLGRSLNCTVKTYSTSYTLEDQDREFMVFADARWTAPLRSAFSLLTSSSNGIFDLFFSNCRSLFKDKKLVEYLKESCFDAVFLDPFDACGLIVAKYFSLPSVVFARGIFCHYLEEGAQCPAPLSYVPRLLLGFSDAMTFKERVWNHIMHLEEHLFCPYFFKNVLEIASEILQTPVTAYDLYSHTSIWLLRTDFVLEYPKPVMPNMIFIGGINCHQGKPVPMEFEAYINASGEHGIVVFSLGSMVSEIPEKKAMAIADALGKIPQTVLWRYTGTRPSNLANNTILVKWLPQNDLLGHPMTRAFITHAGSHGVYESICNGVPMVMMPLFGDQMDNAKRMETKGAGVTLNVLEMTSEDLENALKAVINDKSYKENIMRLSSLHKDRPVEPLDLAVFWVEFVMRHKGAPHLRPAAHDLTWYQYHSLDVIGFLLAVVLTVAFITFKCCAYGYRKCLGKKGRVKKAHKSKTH

[2] = target: T3, UGT1A7*4 (UGT1A7p.Trp208Arg) (Homo sapiens, UniProt Q9HAW7, W208R); assay: SAHA glucuronidation, UGT1A7*4 variant cell homogenate
T3 sequence (Q9HAW7 26-530 W208R): T2 sequence (Q9HAW7 26-530 N129K/R131K) with K104N, K106R, W183R

[3] = target: T4, UGT1A8*3 (UGT1A8p.Cys277Tyr) (Homo sapiens, UniProt Q9HAW9, C277Y); assay: Glucuronidation, UGT1A8*3 variant cell homogenate; conditions: using up to 8 mmol/L SAHA
T4 sequence (Q9HAW9 26-530 C277Y): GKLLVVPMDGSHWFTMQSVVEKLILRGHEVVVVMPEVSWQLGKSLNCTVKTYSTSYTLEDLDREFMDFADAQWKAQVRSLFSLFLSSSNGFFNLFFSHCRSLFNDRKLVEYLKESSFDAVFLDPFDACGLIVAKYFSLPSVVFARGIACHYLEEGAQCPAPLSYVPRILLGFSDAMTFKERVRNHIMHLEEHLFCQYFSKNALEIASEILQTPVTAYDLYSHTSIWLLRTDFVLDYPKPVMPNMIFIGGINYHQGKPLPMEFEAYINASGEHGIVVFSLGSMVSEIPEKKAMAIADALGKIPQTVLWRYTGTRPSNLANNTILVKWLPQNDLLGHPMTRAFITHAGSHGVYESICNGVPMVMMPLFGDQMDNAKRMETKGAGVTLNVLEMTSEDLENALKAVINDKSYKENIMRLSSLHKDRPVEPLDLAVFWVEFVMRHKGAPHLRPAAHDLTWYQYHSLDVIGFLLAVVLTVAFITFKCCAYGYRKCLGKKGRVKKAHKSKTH

O=C(CCCCCCC(=O)Nc1ccccc1)NO [SAHA, Suberoylanilide hydroxamic acid]
glucuronidation against SAHA (screen) (UGT2B17; 400 μg UGT-overexpressing cell homogenate, 1-h incubation): high levels of glucuronidation | apparent KM of UGT2B17 lower than that of UGT1A3 (UGT2B17; against SAHA): 11 fold | apparent KM of UGT2B17 lower than that of UGT1A9 (UGT2B17; against SAHA): 5 fold | higher level of glucuronidation activity (Vmax/KM) of UGT2B17 compared with UGT1A3 (UGT2B17; against SAHA): 9.4 fold | higher level of glucuronidation activity (Vmax/KM) of UGT2B17 compared with UGT1A9 (UGT2B17; against SAHA): 2.3 fold | Km at 1 h (UGT2B17; human, UGT2B17-overexpressing HEK293 cell homogenate, pH 7.5): 300 ± 100 µM | difference in glucuronidation activity against SAHA versus wild-type UGT1A7 ([1]; UGT1A7 variants): No significant difference | Km at 1 h ([1]; human, pH 7.5): 2500 ± 300 µM | difference in glucuronidation activity against SAHA versus wild-type UGT1A7 ([2]; UGT1A7 variants): No significant difference | Km at 1 h ([2]; human, pH 7.5): 2200 ± 500 µM | glucuronidation activity against SAHA [3]: no detectable glucuronidation activity; also recorded: inactive
